This note sets out measurements from paper PMC6235531, “Analyzing Protein Architectures and Protein-Ligand Complexes by Integrative Structural Mass Spectrometry” (Journal of Visualized Experiments : JoVE, 2018).

Counter-ions that a name gives are not always drawn.

The target of experiment [1] is T1, HerA-NurA (Saccharolobus solfataricus, UniProt Q97WG8).
T1 construct: purified HerA hexamer with NurA dimer; with DNA double-strand break repair nuclease NurA
Description: native nESI mass spectrometry titration. In kind it is binding. To be noted: 5 uM protein, 0-1 mM ligand, 2 mM MgCl2, 25 °C 1 h, then 200 mM ammonium acetate pH 7; also tested with 25 bp dsDNA.

Experiment [2] deals with T2, HerA (Saccharolobus solfataricus, UniProt Q97WG8).
T2 construct: purified HerA without NurA, hexamer and heptamer
T2 sequence (Q97WG8 1-500): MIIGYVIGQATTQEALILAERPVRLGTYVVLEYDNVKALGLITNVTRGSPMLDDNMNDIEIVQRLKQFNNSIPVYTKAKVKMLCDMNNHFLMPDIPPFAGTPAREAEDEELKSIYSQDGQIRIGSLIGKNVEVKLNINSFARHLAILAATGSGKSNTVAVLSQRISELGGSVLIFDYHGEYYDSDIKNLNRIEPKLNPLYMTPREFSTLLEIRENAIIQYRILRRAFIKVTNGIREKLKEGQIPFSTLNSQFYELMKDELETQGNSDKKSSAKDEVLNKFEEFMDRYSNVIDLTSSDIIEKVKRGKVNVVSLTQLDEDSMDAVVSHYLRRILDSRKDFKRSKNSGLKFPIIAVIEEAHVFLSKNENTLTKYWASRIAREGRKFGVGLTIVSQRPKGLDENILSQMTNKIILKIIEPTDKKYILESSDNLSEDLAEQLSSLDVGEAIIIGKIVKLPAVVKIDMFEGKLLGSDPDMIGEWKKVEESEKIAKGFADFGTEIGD
The experiment can be described thus: native nESI mass spectrometry titration. The experiment is classed as binding. Conditions: increasing ATP-γ-S; no NurA; 200 mM ammonium acetate.

T1 sequence (Q97WH1 whole entry, one chain of several, further chain): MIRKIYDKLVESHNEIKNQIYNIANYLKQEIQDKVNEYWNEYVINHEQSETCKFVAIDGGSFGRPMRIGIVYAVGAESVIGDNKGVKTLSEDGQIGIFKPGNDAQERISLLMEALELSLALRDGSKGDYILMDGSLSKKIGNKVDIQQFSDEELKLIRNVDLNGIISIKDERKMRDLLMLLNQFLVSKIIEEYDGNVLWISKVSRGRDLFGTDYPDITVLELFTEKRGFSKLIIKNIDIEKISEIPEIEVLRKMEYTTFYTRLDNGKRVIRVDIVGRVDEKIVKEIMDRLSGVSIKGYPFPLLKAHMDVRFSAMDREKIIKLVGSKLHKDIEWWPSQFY

For the molecule `Nc1ncnc2c1ncn2[C@@H]1O[C@H](COP(=O)(O)OP(=O)(O)O)[C@@H](O)[C@H]1O` [ADP], the “native nESI mass spectrometry titration” value in experiment [1] was “ATP-γ-S and ADP titrations experiments determined the pairwise nucleotide binding to HerA-NurA alone”.
Take `Nc1ncnc2c1ncn2[C@@H]1O[C@H](COP(=O)(O)OP(=O)(O)OP(O)(O)=S)[C@@H](O)[C@H]1O` [ATP-γ-S, adenosine 5′-O-(3-thiotriphosphate), tetralithium salt]: the “native nESI mass spectrometry titration” value in experiment [2] was “Number of ATP-γ-S molecules bound is shown on the spectra”; in experiment [1], “ATP-γ-S and ADP titrations experiments determined the pairwise nucleotide binding to HerA-NurA alone”.
